Among the data in ChEMBL document CHEMBL4673242, “Penithoketone and Penithochromones A-L, Polyketides from the Deep-Sea-Derived Fungus Penicillium thomii YPGA3” (J Nat Prod, 2020) are inhibition, Activity and IC50 values, retold here.

In one assay the test system is RAW264.7. The assay is described as follows: Inhibition of LPS-induced NO production in mouse RAW264.7 cells at 50 uM relative to control. In kind it is functional.
Assay [1] concerns LNCaP C4-2B. The assay is described as follows: Cytotoxicity against human enzalutamide-resistant LNCaP C4-2B cells assessed as reduction in cell viability at 50 uM after 72 hrs by MTT assay relative to control. In kind it is functional.
For assay [2], the system named is MCF7. Description: Cytotoxicity against human MCF7 cells assessed as reduction in cell viability at 50 uM after 72 hrs by MTT assay relative to control. In kind it is functional.
The subject of assay [3] is MDA-MB-468. Description: Cytotoxicity against human MDA-MB-468 cells assessed as reduction in cell viability at 50 uM after 72 hrs by MTT assay relative to control. The assay is classed as functional.
For assay [4], the system named is LNCaP C4-2B. The assay is described as follows: Cytotoxicity against human LNCaP C4-2B cells assessed as reduction in cell viability at 50 uM after 72 hrs by MTT assay relative to control. The assay is classed as functional.
In assay [5] the test system is LNCaP C4-2B. Description: Cytotoxicity against human enzalutamide-resistant LNCaP C4-2B cells assessed as reduction in cell viability after 72 hrs by MTT assay. The assay is classed as functional, cell-based.
Assay [6] has as its system LNCaP C4-2B. The assay is described as follows: Cytotoxicity against human LNCaP C4-2B cells assessed as reduction in cell viability after 72 hrs by MTT assay. The assay is classed as functional, cell-based.
Assay [7] has as its system MDA-MB-468. Description: Cytotoxicity against human MDA-MB-468 cells assessed as reduction in cell viability after 72 hrs by MTT assay. In kind it is functional, cell-based. As to conditions: MDA-MB-468, 72 h.
Assay [8] deals with MCF7. Description: Cytotoxicity against human MCF7 cells assessed as reduction in cell viability after 72 hrs by MTT assay. The assay is classed as functional, cell-based. As to conditions: MCF7, 72 h.

Consider `COC(=O)CCCCCCc1cc(=O)c2c(OC)cc(O)cc2o1`, for which, in the assay with RAW264.7, the inhibition at 50 µM was < 30%. Further, the Activity in the assay on LNCaP C4-2B [1], in the assay on MCF7 [2], with MDA-MB-468 [3] and in the assay on LNCaP C4-2B [4] was <30% in each case.

Regarding `COC(=O)CCCCCCc1cc(=O)c2c(O)cc(OC)cc2o1`, the inhibition at 50 µM in the assay on RAW264.7 is < 30%. In addition, the Activity in the assay on LNCaP C4-2B [1], in the assay with MCF7 [2], in the assay on MDA-MB-468 [3] and in the assay on LNCaP C4-2B [4] was <30% in each case.

Consider `O=C(O)CCCCCCc1cc(=O)c2c(O)cc(O)cc2o1`, for which, in the assay on RAW264.7, the inhibition at 50 µM was < 30%. In addition, the Activity with LNCaP C4-2B [1], with MCF7 [2], in the assay on MDA-MB-468 [3] and in the assay on LNCaP C4-2B [4] was <30% in each case.

Take `COC(=O)CCCc1cc(=O)c2c(OC)cc(O)cc2o1`: the inhibition at 50 µM in the assay with RAW264.7 is < 30%. In addition, the Activity with LNCaP C4-2B [1], in the assay on MCF7 [2], with MDA-MB-468 [3] and in the assay with LNCaP C4-2B [4] was <30% each time.

For the compound `COc1cc(OC)c2c(=O)cc(CCCC/C=C/C(=O)O)oc2c1`, the inhibition at 50 µM in the assay with RAW264.7 was < 30%. Besides, the Activity with LNCaP C4-2B [1], in the assay on MCF7 [2], in the assay on MDA-MB-468 [3] and with LNCaP C4-2B [4] was <30% each time.

Turning to `COC(=O)CCCCc1cc(=O)c2c(OC)cc(OC)cc2o1`, the inhibition at 50 µM in the assay with RAW264.7 is < 30%. Moreover, the Activity in the assay with LNCaP C4-2B [1], in the assay on MCF7 [2], with MDA-MB-468 [3] and with LNCaP C4-2B [4] was <30% in each case.

For the compound `COc1cc(OC)c2c(=O)cc(CCCCCCC(=O)O)oc2c1`, in the assay on RAW264.7, the inhibition at 50 µM was < 30%. The Activity in the assay on LNCaP C4-2B [1], with MCF7 [2], in the assay with MDA-MB-468 [3] and in the assay with LNCaP C4-2B [4] was <30% each time.

Turning to `COC1=C(O)C(=O)c2c(O)cccc2[C@@]1(OC)[C@@H](C)C1=CC(=O)OC1`, the inhibition at 50 µM in the assay on RAW264.7 is < 30%. In addition, the IC50 came to 14 µM in the assay with LNCaP C4-2B [5], 9.1 µM in the assay with LNCaP C4-2B [6], 15 µM with MDA-MB-468 [7] and 21 µM in the assay on MCF7 [8]. Also, the Activity with LNCaP C4-2B [1], with MCF7 [2], with MDA-MB-468 [3] and in the assay on LNCaP C4-2B [4] was >50% throughout.

Turning to `COC(=O)CCCCCCc1cc(=O)c2c(O)cc(O)cc2o1`, the inhibition at 50 µM in the assay with RAW264.7 is < 30%. Moreover, the Activity with LNCaP C4-2B [1], in the assay on MCF7 [2], in the assay on MDA-MB-468 [3] and in the assay with LNCaP C4-2B [4] was <30% throughout.

Consider `COC1=C(O)C(=O)c2c(O)cccc2C1=O`, for which, in the assay with RAW264.7, the inhibition at 50 µM was < 30%. Also, the IC50 with LNCaP C4-2B [5] was > 50 µM; in the assay with LNCaP C4-2B [6] it was 41 µM; in the assay on MDA-MB-468 [7], 38 µM; in the assay with MCF7 [8], > 50 µM. The Activity with LNCaP C4-2B [1], in the assay on MCF7 [2], in the assay on MDA-MB-468 [3] and in the assay on LNCaP C4-2B [4] was >50% in each case.

`COC(=O)CCc1cc(=O)c2c(OC)cc(OC)cc2o1`: the inhibition at 50 µM in the assay with RAW264.7 was < 30%. Further, the Activity in the assay with LNCaP C4-2B [1], with MCF7 [2], in the assay on MDA-MB-468 [3] and in the assay on LNCaP C4-2B [4] was <30% each time.

Take `COC1=CC(=O)c2c(O)cccc2C1=O`: in the assay with RAW264.7, the inhibition at 50 µM is < 30%. Also, the IC50 with LNCaP C4-2B [5] was determined as 13 µM; with LNCaP C4-2B [6] it was 6.4 µM; with MDA-MB-468 [7] it was 4.9 µM; in the assay with MCF7 [8], 11 µM. Further, the Activity in the assay on LNCaP C4-2B [1], in the assay with MCF7 [2], in the assay with MDA-MB-468 [3] and in the assay with LNCaP C4-2B [4] was >50% each time.

For `COc1cc(O)c2c(=O)cc(CCCCCCC(=O)O)oc2c1`, the inhibition at 50 µM with RAW264.7 is < 30%. Moreover, the Activity in the assay on LNCaP C4-2B [1], in the assay with MCF7 [2], in the assay with MDA-MB-468 [3] and in the assay with LNCaP C4-2B [4] was <30% throughout.

Turning to `COC(=O)CCCCCCc1cc(=O)c2c(OC)cc(OC)cc2o1`, the inhibition at 50 µM in the assay on RAW264.7 was < 30%. The Activity with LNCaP C4-2B [1], with MCF7 [2], with MDA-MB-468 [3] and in the assay on LNCaP C4-2B [4] was <30% in each case.

As for `COc1cc(OC)c2c(=O)cc(CCCCC(=O)O)oc2c1`, in the assay with RAW264.7, the inhibition at 50 µM is < 30%. The Activity in the assay on LNCaP C4-2B [1], with MCF7 [2], with MDA-MB-468 [3] and in the assay on LNCaP C4-2B [4] was <30% in each case.
